Read-outs that look alike come from different tables or passages of the source.
Key:
Experiment in all cases: HotSpot kinase profiling
Type in all cases: biochemical
[1] = target: T1, BLK (Homo sapiens, UniProt P51451)
T1 construct: purchased Reaction Biology Corp
In short: (§1)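 Percent inhibition, averaged when run more than once and referenced to a DMSO negative control, came from a radioactive filter-binding readout on P81 paper. Reactions of kinase with freshly made substrate and cofactors ran for 2 h at room temperature.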

[2] = target: T2, CHK1 (Homo sapiens, UniProt O14757)
T2 construct: purchased Reaction Biology Corp
T2 sequence (O14757 1-476): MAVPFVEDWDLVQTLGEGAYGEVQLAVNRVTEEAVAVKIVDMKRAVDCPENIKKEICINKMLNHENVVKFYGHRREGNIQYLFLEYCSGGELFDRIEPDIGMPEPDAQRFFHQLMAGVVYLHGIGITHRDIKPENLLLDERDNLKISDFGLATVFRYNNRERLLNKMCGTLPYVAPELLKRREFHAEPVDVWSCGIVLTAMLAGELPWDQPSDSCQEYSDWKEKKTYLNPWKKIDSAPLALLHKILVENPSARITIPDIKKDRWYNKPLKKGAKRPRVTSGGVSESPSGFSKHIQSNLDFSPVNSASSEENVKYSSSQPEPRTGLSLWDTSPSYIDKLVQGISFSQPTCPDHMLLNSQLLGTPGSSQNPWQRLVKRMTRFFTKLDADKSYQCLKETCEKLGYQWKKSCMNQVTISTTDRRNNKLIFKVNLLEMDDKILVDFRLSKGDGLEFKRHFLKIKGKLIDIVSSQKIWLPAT
In short: as §1

[3] = target: T3, DDR2 (Homo sapiens, UniProt Q16832)
T3 construct: purchased Reaction Biology Corp
T3 sequence (Q16832 22-855): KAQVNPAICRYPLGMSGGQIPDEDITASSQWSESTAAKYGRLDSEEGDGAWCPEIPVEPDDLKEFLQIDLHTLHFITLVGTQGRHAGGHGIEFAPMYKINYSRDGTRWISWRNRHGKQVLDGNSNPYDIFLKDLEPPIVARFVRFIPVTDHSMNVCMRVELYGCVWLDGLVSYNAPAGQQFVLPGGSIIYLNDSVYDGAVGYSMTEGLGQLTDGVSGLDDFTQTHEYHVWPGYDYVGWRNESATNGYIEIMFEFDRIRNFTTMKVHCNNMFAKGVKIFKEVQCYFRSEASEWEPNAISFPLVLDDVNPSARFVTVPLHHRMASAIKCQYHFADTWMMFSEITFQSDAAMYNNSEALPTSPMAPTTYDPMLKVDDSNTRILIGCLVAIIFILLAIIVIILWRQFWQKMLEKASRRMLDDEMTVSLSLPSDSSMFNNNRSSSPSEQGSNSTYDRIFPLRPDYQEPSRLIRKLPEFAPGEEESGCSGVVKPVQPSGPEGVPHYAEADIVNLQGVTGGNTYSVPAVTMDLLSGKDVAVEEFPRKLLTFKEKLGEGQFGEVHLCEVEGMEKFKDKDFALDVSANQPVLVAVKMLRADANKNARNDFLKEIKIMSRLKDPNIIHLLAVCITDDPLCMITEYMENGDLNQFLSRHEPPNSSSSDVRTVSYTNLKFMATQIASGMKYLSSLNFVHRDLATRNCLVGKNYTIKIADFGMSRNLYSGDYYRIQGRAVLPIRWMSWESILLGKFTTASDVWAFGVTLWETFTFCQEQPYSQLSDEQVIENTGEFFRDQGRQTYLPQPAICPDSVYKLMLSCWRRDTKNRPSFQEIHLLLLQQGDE
In short: as §1

[4] = target: T4, HGK/MAP4K4 (Homo sapiens, UniProt O95819)
T4 construct: purchased Reaction Biology Corp
In short: as §1

[5] = target: T5, IR (Homo sapiens, UniProt P06213)
T5 construct: purchased Reaction Biology Corp
In short: as §1

[6] = target: T6, IRAK1 (Homo sapiens, UniProt P51617)
T6 construct: purchased Reaction Biology Corp
In short: as §1

[7] = read-out: % Enzyme Activity (relative to DMSO controls) Run 1
[8] = read-out: % Enzyme Activity (relative to DMSO controls) Run 2

T5 sequence (P06213 28-1382): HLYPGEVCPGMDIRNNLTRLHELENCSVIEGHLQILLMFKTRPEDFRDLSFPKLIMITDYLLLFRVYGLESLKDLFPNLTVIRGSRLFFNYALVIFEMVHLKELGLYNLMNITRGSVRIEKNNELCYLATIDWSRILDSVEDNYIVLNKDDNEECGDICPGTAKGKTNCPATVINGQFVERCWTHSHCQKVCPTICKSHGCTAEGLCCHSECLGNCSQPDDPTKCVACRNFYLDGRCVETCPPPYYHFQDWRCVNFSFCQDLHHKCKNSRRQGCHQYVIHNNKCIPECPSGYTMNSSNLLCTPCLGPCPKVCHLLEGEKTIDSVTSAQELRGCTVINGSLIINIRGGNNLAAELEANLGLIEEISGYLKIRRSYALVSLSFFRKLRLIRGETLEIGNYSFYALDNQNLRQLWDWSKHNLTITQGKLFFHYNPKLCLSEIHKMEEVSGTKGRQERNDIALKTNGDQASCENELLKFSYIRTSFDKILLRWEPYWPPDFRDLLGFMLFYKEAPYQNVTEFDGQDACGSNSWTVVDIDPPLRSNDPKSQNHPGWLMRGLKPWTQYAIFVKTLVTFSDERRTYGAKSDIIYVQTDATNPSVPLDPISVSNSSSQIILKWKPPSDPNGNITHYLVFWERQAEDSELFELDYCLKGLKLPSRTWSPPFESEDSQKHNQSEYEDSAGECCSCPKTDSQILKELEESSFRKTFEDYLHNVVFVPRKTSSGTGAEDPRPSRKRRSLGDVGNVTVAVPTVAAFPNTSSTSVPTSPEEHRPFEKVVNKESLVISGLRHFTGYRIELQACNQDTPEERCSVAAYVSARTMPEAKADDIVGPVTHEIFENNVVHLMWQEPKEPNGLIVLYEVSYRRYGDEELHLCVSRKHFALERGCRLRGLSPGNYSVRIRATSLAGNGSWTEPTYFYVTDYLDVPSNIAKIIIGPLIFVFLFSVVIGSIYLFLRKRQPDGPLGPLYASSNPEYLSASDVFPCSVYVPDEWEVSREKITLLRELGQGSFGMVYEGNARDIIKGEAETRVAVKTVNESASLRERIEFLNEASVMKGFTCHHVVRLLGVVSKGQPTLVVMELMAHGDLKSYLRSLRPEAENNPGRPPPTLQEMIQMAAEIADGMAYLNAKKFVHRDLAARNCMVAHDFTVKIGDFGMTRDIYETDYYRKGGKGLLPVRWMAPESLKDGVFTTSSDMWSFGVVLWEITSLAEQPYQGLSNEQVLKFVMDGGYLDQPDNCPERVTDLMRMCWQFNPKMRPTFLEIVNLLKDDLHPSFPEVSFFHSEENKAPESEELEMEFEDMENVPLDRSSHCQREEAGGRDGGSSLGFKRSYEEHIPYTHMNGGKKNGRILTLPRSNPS
T4 sequence (O95819 whole entry): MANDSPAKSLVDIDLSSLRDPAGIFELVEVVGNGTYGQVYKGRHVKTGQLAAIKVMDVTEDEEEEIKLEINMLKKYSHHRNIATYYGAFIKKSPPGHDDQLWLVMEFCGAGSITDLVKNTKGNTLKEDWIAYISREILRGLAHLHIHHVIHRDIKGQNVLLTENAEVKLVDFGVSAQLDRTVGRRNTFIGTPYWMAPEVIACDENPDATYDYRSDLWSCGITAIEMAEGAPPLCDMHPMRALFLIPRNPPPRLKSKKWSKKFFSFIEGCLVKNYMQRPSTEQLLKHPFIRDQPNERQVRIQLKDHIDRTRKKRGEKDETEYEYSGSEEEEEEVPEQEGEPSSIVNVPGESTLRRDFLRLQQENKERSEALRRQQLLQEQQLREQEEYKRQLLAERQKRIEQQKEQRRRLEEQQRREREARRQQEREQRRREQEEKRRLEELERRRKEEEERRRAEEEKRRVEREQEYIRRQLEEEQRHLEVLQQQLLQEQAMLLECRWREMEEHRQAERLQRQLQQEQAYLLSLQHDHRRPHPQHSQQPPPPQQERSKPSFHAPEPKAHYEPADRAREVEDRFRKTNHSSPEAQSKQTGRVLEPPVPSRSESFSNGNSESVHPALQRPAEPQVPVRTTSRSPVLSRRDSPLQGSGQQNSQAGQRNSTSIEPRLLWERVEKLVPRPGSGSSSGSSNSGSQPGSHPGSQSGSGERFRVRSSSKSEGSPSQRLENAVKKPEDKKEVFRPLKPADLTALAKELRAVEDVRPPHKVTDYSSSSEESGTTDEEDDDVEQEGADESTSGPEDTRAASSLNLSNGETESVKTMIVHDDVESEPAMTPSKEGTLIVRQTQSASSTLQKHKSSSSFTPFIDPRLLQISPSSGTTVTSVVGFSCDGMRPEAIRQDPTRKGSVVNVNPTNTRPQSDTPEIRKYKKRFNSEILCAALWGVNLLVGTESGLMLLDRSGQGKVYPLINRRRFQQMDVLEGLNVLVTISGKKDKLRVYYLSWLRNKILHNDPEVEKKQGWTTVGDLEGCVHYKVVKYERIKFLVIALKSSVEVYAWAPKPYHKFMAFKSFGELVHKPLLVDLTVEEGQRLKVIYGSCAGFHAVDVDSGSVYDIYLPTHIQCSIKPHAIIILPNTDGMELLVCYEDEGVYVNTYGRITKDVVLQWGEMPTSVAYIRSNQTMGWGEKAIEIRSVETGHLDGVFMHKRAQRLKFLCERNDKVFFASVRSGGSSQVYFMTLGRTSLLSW
T6 sequence (P51617 whole entry): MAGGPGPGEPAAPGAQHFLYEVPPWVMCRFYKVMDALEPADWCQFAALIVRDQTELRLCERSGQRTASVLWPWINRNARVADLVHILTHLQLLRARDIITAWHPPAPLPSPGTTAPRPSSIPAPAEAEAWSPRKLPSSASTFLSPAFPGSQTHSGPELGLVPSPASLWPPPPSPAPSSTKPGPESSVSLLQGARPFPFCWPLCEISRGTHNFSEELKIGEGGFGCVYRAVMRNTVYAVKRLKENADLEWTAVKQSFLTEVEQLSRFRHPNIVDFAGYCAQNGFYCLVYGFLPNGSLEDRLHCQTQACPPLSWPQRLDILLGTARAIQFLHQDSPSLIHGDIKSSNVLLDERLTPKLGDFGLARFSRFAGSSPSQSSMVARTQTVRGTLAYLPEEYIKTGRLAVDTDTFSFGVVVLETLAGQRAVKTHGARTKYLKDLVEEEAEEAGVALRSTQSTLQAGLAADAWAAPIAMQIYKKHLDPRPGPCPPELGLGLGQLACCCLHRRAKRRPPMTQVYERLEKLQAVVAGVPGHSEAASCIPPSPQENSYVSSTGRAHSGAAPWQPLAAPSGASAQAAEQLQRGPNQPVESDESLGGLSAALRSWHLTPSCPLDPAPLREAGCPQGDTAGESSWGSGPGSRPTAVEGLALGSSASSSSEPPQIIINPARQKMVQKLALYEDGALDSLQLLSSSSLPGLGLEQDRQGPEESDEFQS
T1 sequence (P51451 whole entry): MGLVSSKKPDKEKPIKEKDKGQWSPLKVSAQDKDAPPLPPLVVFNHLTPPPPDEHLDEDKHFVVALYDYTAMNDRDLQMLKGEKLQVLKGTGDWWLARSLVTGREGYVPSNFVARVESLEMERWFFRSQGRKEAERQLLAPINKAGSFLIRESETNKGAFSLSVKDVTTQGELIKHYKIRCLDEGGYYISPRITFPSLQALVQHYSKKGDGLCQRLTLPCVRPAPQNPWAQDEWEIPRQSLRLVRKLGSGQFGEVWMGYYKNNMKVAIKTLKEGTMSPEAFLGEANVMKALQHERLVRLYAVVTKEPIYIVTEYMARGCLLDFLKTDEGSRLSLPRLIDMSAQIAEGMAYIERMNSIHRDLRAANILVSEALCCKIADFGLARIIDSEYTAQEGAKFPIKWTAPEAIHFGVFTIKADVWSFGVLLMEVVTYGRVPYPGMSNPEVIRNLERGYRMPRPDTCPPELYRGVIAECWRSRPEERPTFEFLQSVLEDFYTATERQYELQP

Q: For `C=CC(=O)Nc1cccc(Nc2nc(Nc3ccc(OCCOC)c(F)c3)ncc2F)c1` [Compound 2], which inhibition at 3 µM [1] is on record?
A: Its inhibition at 3 µM is 93.7%.

Q: What about the remaining activity at 3 µM [1, 7] of the same compound?
A: The remaining activity at 3 µM was 6.3%.

Q: What about the remaining activity at 3 µM [1, 8] of the same compound?
A: The remaining activity at 3 µM was 6.37%.

Q: And the inhibition at 3 µM [2]?
A: The inhibition at 3 µM was 6.15%.

Q: And the remaining activity at 3 µM [2, 7]?
A: The remaining activity at 3 µM was 93.1%.

Q: What about the remaining activity at 3 µM [2, 8] of the same compound?
A: Its remaining activity at 3 µM is 94.6%.

Q: And the inhibition at 3 µM [3]?
A: Its inhibition at 3 µM is -3.87%.

Q: And the remaining activity at 3 µM [3, 7]?
A: The remaining activity at 3 µM was 103%.

Q: What about the remaining activity at 3 µM [3, 8] of the same compound?
A: Its remaining activity at 3 µM is 105%.

Q: What about the inhibition at 3 µM [4] of the same compound?
A: The inhibition at 3 µM was 1.27%.

Q: What about the remaining activity at 3 µM [4, 7] of the same compound?
A: The remaining activity at 3 µM was 98.9%.

Q: And the remaining activity at 3 µM [4, 8]?
A: The remaining activity at 3 µM was 98.6%.

Q: And the inhibition at 3 µM [5]?
A: Its inhibition at 3 µM is 15.4%.

Q: And the remaining activity at 3 µM [5, 7]?
A: Its remaining activity at 3 µM is 84.5%.

Q: What about the remaining activity at 3 µM [5, 8] of the same compound?
A: The remaining activity at 3 µM was 84.7%.

Q: What about the inhibition at 3 µM [6] of the same compound?
A: The inhibition at 3 µM was 24.6%.

Q: What about the remaining activity at 3 µM [6, 7] of the same compound?
A: The remaining activity at 3 µM was 76.5%.

Q: What about the remaining activity at 3 µM [6, 8] of the same compound?
A: Its remaining activity at 3 µM is 74.4%.
